Experimental findings from patent publication US7772271B2 (priority 2004, dated 2010) are described below.

`Cc1csc(Nc2ccc(-c3c(C#N)c4ccc(OC5CCOCC5)cc4n3C3CCC3)cc2)n1` [Compound 3152]: the melting point fell in the range of 215 to 217 °C.
Next, `CCOc1ccc2c(C#N)c(-c3ccc(NC(=O)OCCS(C)(=O)=O)cc3)n(C3CCC3)c2c1` [Compound 3079]: 194 to 195 °C; `CCCS(=O)(=O)Nc1ccc(-c2c(C#N)c3ccc(OCS(C)(=O)=O)cc3n2C2CCC2)cc1` [Compound 2987]: 266 to 273 °C.
Take `CC(C)CS(=O)(=O)Nc1ccc(-c2c(C#N)c3ccc(OC4COCOC4)cc3n2C2CCC2)cc1` [Compound 2917]: the melting point is 175 to 177 °C.
Next, `N#Cc1c(-c2ccc(NC(=O)OC3CCC3)cc2)n(C2CCC2)c2cc(OC3COCOC3)ccc12` [Compound 2872]: 215 to 216 °C.
Next, `COCCOc1ccc2c(C#N)c(-c3ccc(NS(=O)(=O)C4CC4)cc3)n(C3CCC3)c2c1` [Compound 1417]: 192 to 193 °C.
In turn, `Cc1ccnc(Oc2ccc3c(C#N)c(-c4ccc(NS(=O)(=O)N[C@@H](C)C5CC5)cc4)n(C4CCC4)c3c2)n1` [Compound 3019] had a melting point of 227 to 229 °C.
Next, `CCCS(=O)(=O)Nc1ccc(-c2c(C#N)c3ccc(Oc4ncccc4C#N)cc3n2CC2CC2)cc1` [Compound 3250]: 232 to 235 °C.
On to `CC(NC(=O)Nc1ccc(-c2c(C#N)c3ccc(OC4CCOCC4)cc3n2C2CC2)cc1)c1ccc(F)cc1` (stereo not shown) [Compound 2653], for which the melting point fell in the range of 189 to 192 °C.
In the case of `CC(C)OC(=O)Nc1ccc(-c2c(C#N)c3ccc(N4CCOCC4)cc3n2CC2CC2)cc1` [Compound 2891], the melting point was 170 to 180 °C.
Next, `C[C@@H](OC(=O)Nc1ccc(-c2c(C#N)c3cc(N4CCOCC4)ccc3n2C2CCC2)cc1)C(F)(F)F` [Compound 2832]: 197 to 202 °C; `N#Cc1c(-c2ccc(Nc3ccc(F)c(C(F)(F)F)c3)cc2)n(C2CCC2)c2cc(OC3CCOCC3)ccc12` [Compound 3156]: 168 to 169 °C; `CCCS(=O)(=O)Nc1ccc(-c2c(C#N)c3ccc(OCCCN4C(=O)CCC4=O)cc3n2C2CCC2)cc1` [Compound 3296]: 215 to 216 °C.
In turn, `N#Cc1c(-c2ccc(NC(=O)NC3CCC3)cc2)n(CC2CC2)c2cc(N3CCOCC3)ccc12` [Compound 2876] came in with a melting point of 170 to 230 °C.
Next, `CCOc1ccc2c(C#N)c(-c3ccc(NC(=O)OC4CCN(C(=O)OC(C)(C)C)CC4)cc3)n(C3CCC3)c2c1` [Compound 3069]: 207 to 211 °C.
On to `CCCS(=O)(=O)Nc1ccc(-c2c(C#N)c3ccc(Oc4ncccc4C#N)cc3n2C2CCC2)c(F)c1` [Compound 3346], for which the melting point lay in the range of 113 to 116 °C.
Next, `C[C@@H](OC(=O)Nc1ccc(-c2c(C#N)c3ccc(N4CCOCC4)cc3n2C2CCC2)cc1)c1ccc(F)cc1` [Compound 2865]: 163 to 165 °C; `CCCS(=O)(=O)Nc1ccc(-c2c(C#N)c3ccc(N4CCOCC4)cc3n2C2CCC2)cc1` [Compound 2803]: 203 to 204 °C; `N#Cc1c(-c2ccc(NC(=O)OCc3ccccc3)cc2)n(C2CCC2)c2ccc(OCCCn3cncn3)cc12` [Compound 2732]: 215 to 217 °C.
Next, `CCn1c(-c2ccc(NC(=O)N(C)Cc3ccccc3)cc2)c(C#N)c2ccc(OCCOC)cc21` [Compound 1384]: 175 to 176 °C.
`CCOc1ccc2c(C#N)c(-c3ccc(NC(=O)NCCO)cc3)n(C3CCC3)c2c1` [compound 1408, 1-[4-(3-cyano-1-cyclobutyl-6-ethoxy-1H-indol-2-yl)-phenyl]-3-(2-hydroxy-ethyl)-urea] returned a melting point of 199 to 203 °C.
In turn, `N#Cc1c(-c2ccc(NS(=O)(=O)C3CC3)cc2)n(C2CCC2)c2cc(OC3CCS(=O)(=O)CC3)ccc12` [Compound 3185] had a melting point of 279 to 285 °C.
`CC(OC(=O)Nc1ccc(-c2c(C#N)c3ccc(OCC4OCCO4)cc3n2C2CCC2)cc1)C(F)(F)F` (stereo not shown) [Compound 2646] yielded a melting point of 187 to 189 °C.
`CC(C)OC(=O)Nc1ccc(-c2c(C#N)c3ccc(OCCC4COC(C)(C)O4)cc3n2C2CCC2)cc1` (stereo not shown) [compound 1428, (4-{3-cyano-1-cyclobutyl-6-[2-(2,2-dimethyl-[1,3]dioxolan-4-yl)-ethoxy]-1H-indol-2-yl}-phenyl)-carbamic acid isopropyl ester] displayed a melting point of 141 to 145 °C.
Next, `CCc1cnc(Oc2ccc3c(C#N)c(-c4ccc(NC(=O)O[C@H](C)C5CC5)cc4C)n(C4CCC4)c3c2)nc1` [Compound 3058]: 181 to 185 °C; `CC(C)OC(=O)Nc1ccc(-c2c(C#N)c3ccc(OC4CCN(Cc5ccccc5)C4)cc3n2C2CCC2)cc1` (stereo not shown) [Compound 1442]: 144 to 145 °C.
Next, `CCOC(=O)Nc1ccc(-c2c(C#N)c3ccc(N4CCN(C)CC4)cc3n2CC)cc1` [compound 1339]: 177 to 178 °C.
On to `Cc1nccnc1Oc1ccc2c(c1)c(C#N)c(-c1ccc(NC(=O)O[C@H](C)C3CC3)cc1)n2C1CCC1` [Compound 3254], for which the melting point is 214 to 215 °C.
Next, `Cc1cccc(-c2ccc3c(C#N)c(-c4ccc(NC(=O)O[C@H](C)C5CC5)cc4)n(C4CCC4)c3c2)c1` [Compound 2977]: 112 to 117 °C; `N#Cc1c(-c2ccc(N3CCCCS3(=O)=O)cc2)n(C2CCC2)c2cc(Oc3cnccn3)ccc12` [Compound 3220]: 187 to 196 °C; `N#Cc1c(-c2ccc(Nc3nc(C(F)(F)F)cs3)cc2)n(C2CCC2)c2cc(OCCF)ccc12` [Compound 3207]: 116 to 118 °C.
Next, `N#Cc1c(-c2ccc(NC(=O)OC(c3ccccc3)C(F)(F)F)cc2)n(C2CCC2)c2cc(Oc3ncccn3)ccc12` (stereo not shown) [Compound 2709]: 246 to 248 °C.
Take `C[C@H](NS(=O)(=O)Nc1ccc(-c2c(C#N)c3ccc(Oc4ncccc4F)cc3n2C2CCC2)cc1)C1CC1` [Compound 3018]: the melting point was in the range of 155 to 157 °C.
The compound `C[C@@H](OC(=O)Nc1ccc(-c2c(C#N)c3ccc(-c4ccccn4)cc3n2C2CCC2)cc1)C(F)(F)F` [Compound 2959] returned a melting point of 220 to 222 °C.
Next, `CCCS(=O)(=O)Nc1ccc(-c2c(C#N)c3ccc(Oc4nccnc4C#N)cc3n2CC2CC2)cc1` [Compound 3224]: 178 to 180 °C; `CCCS(=O)(=O)Nc1ccc(-c2c(C#N)c3ccc(OCCCO)cc3n2C2CCC2)cc1` [Compound 1450]: 162 to 163 °C; `COCCOc1ccc2c(C#N)c(-c3ccc(NC(=O)OC4CCCC4)cc3)n(C3CCC3)c2c1` [Compound 1400]: 168 to 169 °C.
Take `CCCS(=O)(=O)Nc1ccc(-c2c(C#N)c3ccc(-c4c(C)noc4C)cc3n2C2CCC2)cc1` [Compound 2932]: the melting point was in the range of 224 to 225 °C.
Next, `N#Cc1c(-c2ccc(NS(=O)(=O)C3CC3)cc2)n(C2CCC2)c2cc(C(=O)N3CCOCC3)ccc12` [Compound 2825]: 125 to 128 °C; `CCCn1c(-c2ccc(NC(=O)NCc3ccco3)cc2)c(C#N)c2ccc(OC)cc21` [Compound 1388]: 161 to 164 °C.
Next, `Cc1cccn(-c2ccc3c(C#N)c(-c4ccc(NC(=O)OC(C)C)cc4)n(C4CCC4)c3c2)c1=O` [Compound 3339]: 284 to 285 °C.
Next, `C[C@@H](OC(=O)Nc1ccc(-c2c(C#N)c3ccc(OCCN4CCCC4=O)cc3n2C2CCC2)cc1)C1CC1` [Compound 3266]: 159 to 162 °C.
As for `CCCS(=O)(=O)Nc1cc(C)c(-c2c(C#N)c3ccc(Oc4ncccc4C#N)cc3n2C2CCC2)cc1C` [Compound 3335], the melting point was 227 to 230 °C.
Next, `CC(C)n1c(-c2ccc(NS(=O)(=O)Cc3ccc(C(F)(F)F)cc3)cc2)c(C#N)c2ccc(OC(F)F)cc21` [Compound 3178]: 224 to 225 °C.
The compound `CCC(C)NC(=O)c1ccc2c(C#N)c(-c3ccc(NS(=O)(=O)C4CC4)cc3)n(C3CCC3)c2c1` (stereo not shown) [Compound 2295] yielded a melting point of 105 to 107 °C.
Regarding `COCCN(C)C(=O)c1ccc2c(C#N)c(-c3ccc(NS(=O)(=O)C4CC4)cc3)n(C3CCC3)c2c1` [Compound 2824], the melting point lay within 201 to 203 °C.
Next, `CCn1c(-c2ccc(NC(=O)C3CC3)cc2)c(C#N)c2ccc(OCCN3CCN(CCOC)CC3)cc21` [Compound 1414]: 163.9 to 168.8 °C; `C[C@@H](OC(=O)Nc1ccc(-c2c(C#N)c3ccc(OCCn4ccnc4)cc3n2C2CC2)cc1)c1ccc(F)cc1` [Compound 2828]: 225 to 230 °C; `N#Cc1c(-c2ccc(NCC3CCCCC3)cc2)n(C2CCC2)c2cc(OC3CCOCC3)ccc12` [Compound 3123]: 175 to 177 °C.
Next, `CCNC(=O)Oc1ccc(-c2c(C#N)c3ccc(OC4CCOCC4)cc3n2CC2CC2)cc1` [Compound 2780]: 155 to 156 °C; `CCC(CC)OC(=O)Nc1ccc(-c2c(C#N)c3ccc(OC4CCOCC4)cc3n2C2CCC2)cc1` [Compound 2617]: 127 to 129 °C.
The compound `CCN(CC)C(=O)c1ccc2c(C#N)c(-c3ccc(NC(=O)O[C@H](C)C4CC4)cc3)n(C3CCC3)c2c1` [Compound 2272] displayed a melting point of 166 to 168 °C.
Turning to `CCCS(=O)(=O)Nc1ccc(-c2c(C#N)c3cc(C(=O)N(C)C)ccc3n2C2CCC2)cc1` [Compound 3094], the melting point fell in the range of 236 to 237 °C.
Next, `N#Cc1c(-c2cnc(NC3CC3)nc2)n(C2CCC2)c2cc(Oc3ncccn3)ccc12` [Compound 3328]: 227 to 229 °C.
Next, `CCCS(=O)(=O)Nc1ccc(-c2c(C#N)c3ccc(Oc4nccnc4Cl)cc3n2C2CCC2)cc1` [Compound 2930]: 227 to 229 °C; `N#Cc1c(-c2cnc(NC3CCC3)nc2)n(C2CCC2)c2cc(Oc3ncccn3)ccc12` [Compound 3329]: 237 to 238 °C.
Next, `Cc1cc(NC(=O)O[C@H](C)C2CC2)ccc1-c1c(C#N)c2ccc(Oc3nccnc3C#N)cc2n1C1CCC1` [Compound 3334]: 108 to 116 °C; `CC(C)OC(=O)Nc1ccc(-c2c(C#N)c3ccc(OC4CCS(=O)(=O)CC4)cc3n2C2CCCC2)cc1` [Compound 3246]: 223 to 227 °C.

As usually defined, the melting point is the temperature, or range, at which the solid turns liquid.
